From ChEMBL document CHEMBL1139192, “Novel bis(indolyl)maleimide pyridinophanes that are potent, selective inhibitors of glycogen synthase kinase-3” (Bioorg Med Chem Lett, 2007) come the findings set out here.

The target of assay [1] is Serine/threonine-protein kinase N2 (Homo sapiens) (UniProt Q16513). The assay can be described thus: Residual activity of human PRK2 at 1 uM relative to control.
Assay [2] has as its target T1, Protein kinase C zeta type (Homo sapiens) (UniProt Q05513).
T1 sequence (whole entry): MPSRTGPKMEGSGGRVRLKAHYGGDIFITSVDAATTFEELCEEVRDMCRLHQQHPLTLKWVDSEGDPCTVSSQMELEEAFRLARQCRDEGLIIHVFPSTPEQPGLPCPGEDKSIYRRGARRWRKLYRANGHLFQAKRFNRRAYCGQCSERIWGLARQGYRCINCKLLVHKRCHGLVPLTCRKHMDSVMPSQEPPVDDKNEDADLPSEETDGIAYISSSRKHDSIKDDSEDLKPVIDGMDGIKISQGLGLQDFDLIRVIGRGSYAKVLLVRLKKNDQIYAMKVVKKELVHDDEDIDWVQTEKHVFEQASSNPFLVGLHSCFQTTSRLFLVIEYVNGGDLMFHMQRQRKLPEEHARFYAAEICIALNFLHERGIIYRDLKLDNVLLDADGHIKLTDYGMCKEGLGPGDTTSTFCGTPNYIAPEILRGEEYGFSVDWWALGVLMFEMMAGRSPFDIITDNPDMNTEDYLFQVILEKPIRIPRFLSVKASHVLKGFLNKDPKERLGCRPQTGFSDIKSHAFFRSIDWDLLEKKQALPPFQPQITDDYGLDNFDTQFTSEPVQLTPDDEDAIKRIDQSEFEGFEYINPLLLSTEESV
The assay can be described thus: Residual activity of human PKCzeta at 1 uM relative to control.

Assay [3] has as its target T2, Aurora kinase A (Homo sapiens) (UniProt O14965).
T2 sequence (whole entry): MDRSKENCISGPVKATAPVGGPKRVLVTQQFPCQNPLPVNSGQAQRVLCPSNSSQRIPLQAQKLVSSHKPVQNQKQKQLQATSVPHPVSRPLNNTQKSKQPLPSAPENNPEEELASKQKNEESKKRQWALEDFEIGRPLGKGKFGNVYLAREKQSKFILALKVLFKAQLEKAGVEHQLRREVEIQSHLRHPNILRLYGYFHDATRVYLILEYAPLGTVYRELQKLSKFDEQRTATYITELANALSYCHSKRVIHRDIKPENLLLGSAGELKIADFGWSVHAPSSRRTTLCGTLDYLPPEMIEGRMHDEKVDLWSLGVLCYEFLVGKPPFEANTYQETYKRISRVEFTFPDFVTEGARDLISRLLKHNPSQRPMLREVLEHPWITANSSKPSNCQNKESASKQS
As to the kind of experiment: Residual activity of human Aurora A at 1 uM relative to control.

In assay [4] the target is Protein kinase C theta type (Homo sapiens, UniProt Q04759). As to the kind of experiment: Residual activity of human PKCtheta at 1 uM relative to control.
Chain of Protein kinase C theta type (Q04759 whole entry, looked up): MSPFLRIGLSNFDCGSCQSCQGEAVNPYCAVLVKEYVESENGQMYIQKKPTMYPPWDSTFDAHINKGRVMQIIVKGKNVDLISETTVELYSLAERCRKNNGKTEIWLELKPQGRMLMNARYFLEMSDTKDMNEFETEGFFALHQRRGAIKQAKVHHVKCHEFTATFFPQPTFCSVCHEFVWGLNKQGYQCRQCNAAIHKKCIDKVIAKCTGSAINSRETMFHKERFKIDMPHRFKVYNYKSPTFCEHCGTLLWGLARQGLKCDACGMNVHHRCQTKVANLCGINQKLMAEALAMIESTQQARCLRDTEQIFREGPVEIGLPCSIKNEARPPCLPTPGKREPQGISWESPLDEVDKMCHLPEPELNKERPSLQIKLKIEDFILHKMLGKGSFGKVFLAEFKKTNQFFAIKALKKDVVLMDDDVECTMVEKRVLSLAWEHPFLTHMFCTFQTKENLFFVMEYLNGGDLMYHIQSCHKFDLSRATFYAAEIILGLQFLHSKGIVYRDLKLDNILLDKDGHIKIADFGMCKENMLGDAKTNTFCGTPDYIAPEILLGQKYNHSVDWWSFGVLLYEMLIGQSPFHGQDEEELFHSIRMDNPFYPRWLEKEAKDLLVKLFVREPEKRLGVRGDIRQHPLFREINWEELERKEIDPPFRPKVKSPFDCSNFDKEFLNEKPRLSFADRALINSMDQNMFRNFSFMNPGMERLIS
The target in assay [5] is T3, Protein kinase C epsilon type (Homo sapiens) (UniProt Q02156).
T3 sequence (whole entry): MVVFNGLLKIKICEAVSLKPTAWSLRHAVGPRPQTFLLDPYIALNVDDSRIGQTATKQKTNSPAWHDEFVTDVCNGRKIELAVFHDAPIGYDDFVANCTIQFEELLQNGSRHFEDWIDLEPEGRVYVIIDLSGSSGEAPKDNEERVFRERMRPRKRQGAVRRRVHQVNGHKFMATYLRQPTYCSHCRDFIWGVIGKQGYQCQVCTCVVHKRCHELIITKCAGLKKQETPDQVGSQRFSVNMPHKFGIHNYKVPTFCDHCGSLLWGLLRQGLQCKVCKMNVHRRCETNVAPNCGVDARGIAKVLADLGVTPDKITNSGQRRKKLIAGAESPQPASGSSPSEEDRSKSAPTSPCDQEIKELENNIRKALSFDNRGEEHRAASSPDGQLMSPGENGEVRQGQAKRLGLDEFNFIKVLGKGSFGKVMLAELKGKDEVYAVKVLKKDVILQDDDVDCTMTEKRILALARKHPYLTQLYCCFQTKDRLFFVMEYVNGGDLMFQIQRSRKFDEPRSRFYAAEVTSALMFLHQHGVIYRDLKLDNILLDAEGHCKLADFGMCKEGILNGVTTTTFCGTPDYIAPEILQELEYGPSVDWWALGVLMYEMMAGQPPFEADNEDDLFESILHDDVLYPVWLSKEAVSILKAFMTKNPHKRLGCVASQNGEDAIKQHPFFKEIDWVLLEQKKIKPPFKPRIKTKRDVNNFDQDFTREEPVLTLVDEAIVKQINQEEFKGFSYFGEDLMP
The assay can be described thus: Residual activity of human PKCepsilon at 1 uM relative to control.

The next assay is filed under the species Homo sapiens. The assay can be described thus: Residual activity of human CDK2/Cyclin A at 1 uM relative to control.
The target in assay [6] is Ribosomal protein S6 kinase alpha-1 (Rattus norvegicus) (UniProt Q63531). The assay can be described thus: Inhibition of rat Rsk1 at 1 uM relative to control; values are per cent of control.
Chain of Ribosomal protein S6 kinase alpha-1 (Rattus norvegicus) (Q63531 whole entry): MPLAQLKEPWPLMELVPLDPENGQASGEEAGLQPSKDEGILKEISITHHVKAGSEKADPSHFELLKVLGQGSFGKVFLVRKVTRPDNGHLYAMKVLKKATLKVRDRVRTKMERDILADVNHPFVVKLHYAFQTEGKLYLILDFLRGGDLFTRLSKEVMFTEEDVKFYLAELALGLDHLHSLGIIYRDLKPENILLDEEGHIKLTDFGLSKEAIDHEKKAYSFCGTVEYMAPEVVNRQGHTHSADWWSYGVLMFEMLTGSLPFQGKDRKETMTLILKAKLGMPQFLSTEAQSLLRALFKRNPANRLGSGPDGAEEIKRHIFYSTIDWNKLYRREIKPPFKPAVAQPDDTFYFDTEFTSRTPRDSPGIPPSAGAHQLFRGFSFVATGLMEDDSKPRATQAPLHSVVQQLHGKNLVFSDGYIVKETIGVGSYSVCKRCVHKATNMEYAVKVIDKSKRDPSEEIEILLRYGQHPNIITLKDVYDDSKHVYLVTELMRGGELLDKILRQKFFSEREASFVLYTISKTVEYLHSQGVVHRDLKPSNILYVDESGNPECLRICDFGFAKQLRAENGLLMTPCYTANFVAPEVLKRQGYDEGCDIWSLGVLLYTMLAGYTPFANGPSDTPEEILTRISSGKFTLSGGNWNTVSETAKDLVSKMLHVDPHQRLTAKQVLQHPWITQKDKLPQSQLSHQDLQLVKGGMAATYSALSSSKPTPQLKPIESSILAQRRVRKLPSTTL
The species entered for another assay is Rattus norvegicus. The assay can be described thus: Inhibition of rat CaMK2 at 1 uM relative to control; values are per cent of control.
The target of assay [7] is Tyrosine-protein kinase Lck (Homo sapiens) (UniProt P06239). The assay can be described thus: Inhibition of human Lck at 1 uM relative to control; values are per cent of control.
Chain of Tyrosine-protein kinase Lck (Homo sapiens) (P06239 2-509 limits assumed): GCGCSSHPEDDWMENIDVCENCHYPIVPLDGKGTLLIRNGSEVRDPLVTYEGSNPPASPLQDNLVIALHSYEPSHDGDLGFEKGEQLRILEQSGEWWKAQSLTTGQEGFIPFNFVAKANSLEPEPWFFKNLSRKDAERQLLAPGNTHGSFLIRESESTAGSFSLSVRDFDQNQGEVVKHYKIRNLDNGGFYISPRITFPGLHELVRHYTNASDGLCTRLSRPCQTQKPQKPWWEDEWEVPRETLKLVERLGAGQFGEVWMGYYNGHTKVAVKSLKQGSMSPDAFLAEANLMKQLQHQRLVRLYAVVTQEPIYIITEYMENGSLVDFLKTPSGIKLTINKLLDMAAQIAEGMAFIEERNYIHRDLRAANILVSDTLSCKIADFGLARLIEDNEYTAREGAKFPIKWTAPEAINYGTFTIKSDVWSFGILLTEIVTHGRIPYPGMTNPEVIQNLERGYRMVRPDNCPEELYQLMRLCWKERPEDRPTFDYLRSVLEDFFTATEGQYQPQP
Assay [8] addresses Tyrosine-protein kinase SYK (Homo sapiens) (UniProt P43405). As to the kind of experiment: Inhibition of human Syk at 1 uM relative to control; values are per cent of control.
Assay [9] addresses T4, Serine/threonine-protein kinase Chk1 (Homo sapiens) (UniProt O14757).
T4 sequence (whole entry): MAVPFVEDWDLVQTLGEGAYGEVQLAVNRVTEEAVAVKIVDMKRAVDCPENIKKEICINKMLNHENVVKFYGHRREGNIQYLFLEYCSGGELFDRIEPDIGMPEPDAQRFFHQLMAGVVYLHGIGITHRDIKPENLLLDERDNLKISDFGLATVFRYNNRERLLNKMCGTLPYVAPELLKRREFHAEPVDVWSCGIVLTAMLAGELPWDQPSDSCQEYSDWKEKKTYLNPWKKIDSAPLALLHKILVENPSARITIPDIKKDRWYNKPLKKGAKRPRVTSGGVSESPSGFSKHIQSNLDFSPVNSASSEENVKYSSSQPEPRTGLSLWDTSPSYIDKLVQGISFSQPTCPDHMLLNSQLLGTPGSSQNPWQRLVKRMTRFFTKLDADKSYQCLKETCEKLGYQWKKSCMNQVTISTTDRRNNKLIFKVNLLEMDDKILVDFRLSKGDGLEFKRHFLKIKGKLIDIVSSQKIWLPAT
The assay can be described thus: Inhibition of human CHK1 at 1 uM relative to control; values are per cent of control.

Assay [10] concerns the target Tyrosine-protein kinase Yes (Homo sapiens) (UniProt P07947). As to the kind of experiment: Inhibition of human Yes kinase at 1 uM relative to control; values are per cent of control.

Chain of Serine/threonine-protein kinase N2 (Homo sapiens) (Q16513 whole entry, looked up): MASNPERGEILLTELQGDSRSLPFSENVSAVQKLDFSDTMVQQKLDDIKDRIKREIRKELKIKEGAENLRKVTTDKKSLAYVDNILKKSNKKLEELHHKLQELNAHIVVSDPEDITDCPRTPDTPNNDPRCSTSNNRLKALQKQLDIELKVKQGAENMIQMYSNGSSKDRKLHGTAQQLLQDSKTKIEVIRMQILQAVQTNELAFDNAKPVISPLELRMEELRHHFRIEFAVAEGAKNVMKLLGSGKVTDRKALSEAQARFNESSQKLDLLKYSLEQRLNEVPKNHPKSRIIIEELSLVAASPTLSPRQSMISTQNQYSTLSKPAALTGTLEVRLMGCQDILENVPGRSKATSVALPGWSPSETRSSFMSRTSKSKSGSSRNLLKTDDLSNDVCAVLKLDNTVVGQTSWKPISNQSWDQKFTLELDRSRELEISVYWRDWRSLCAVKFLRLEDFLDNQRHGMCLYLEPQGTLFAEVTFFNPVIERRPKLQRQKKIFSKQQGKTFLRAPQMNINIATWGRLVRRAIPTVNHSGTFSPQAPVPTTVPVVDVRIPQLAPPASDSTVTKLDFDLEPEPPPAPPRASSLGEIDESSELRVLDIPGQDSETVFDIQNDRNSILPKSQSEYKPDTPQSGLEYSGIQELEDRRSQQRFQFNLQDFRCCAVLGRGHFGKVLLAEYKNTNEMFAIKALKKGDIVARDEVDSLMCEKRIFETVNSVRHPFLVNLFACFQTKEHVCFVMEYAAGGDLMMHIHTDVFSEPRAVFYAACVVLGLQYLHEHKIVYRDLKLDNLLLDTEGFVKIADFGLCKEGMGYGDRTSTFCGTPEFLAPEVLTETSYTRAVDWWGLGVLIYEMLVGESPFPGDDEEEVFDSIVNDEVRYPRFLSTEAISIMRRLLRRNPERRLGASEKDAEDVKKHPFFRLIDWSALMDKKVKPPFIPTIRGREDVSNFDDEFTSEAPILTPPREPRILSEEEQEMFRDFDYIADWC
Chain of Tyrosine-protein kinase Yes (Homo sapiens) (P07947 2-543 limits assumed): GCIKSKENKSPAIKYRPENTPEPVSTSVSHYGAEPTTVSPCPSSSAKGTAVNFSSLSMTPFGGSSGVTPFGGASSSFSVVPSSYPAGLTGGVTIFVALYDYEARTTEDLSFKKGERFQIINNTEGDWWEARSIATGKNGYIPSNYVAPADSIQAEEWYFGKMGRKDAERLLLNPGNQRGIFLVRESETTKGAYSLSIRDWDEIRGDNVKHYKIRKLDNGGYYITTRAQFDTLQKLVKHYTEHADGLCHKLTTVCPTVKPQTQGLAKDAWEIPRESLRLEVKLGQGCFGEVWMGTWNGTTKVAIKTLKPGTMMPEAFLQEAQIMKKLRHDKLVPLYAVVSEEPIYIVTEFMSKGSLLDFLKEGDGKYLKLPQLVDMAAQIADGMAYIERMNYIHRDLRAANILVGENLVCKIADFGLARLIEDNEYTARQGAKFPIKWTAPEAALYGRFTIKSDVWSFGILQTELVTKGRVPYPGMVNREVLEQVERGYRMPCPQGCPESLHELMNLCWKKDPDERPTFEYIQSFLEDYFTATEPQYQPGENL

As to `CN(C)c1cc2cc(n1)CCCn1cc(c3ccccc31)C1=C(C(=O)NC1=O)c1cn(c3ccccc13)CCC2`, the residual activity in assay [1] came out at 113%; in assay [2], 105%; in [3], 111%; in [4] it was 27%; in [5] it was 83%; in the assay filed under Homo sapiens it was 80%. Moreover, the residual activity in [6] turned out to be 7%; in the assay listed under Rattus norvegicus, 107%; in [7], 100%; in assay [8], 101%; in assay [9] it was 101%; in assay [10], 79%.
As for `O=C1NC(=O)C2=C1c1cn(c3ccccc13)CCCc1ccc(c(N3CCCC3)n1)CCCn1cc2c2ccccc21`, the residual activity in assay [1] is 126%; in [2], 116%; in [3], 106%; in [4] it was 33%; in [5], 97%; in the assay listed under Homo sapiens, 88%. Moreover, the residual activity in [6] stood at 67%; in assay [7], 90%; in assay [8], 109%; in assay [9] it was 106%; in assay [10], 43%.
With `O=C1NC(=O)C2=C1c1cn(c3ccccc13)CCCc1cc(nc(N3CCCC3)c1)CCCn1cc2c2ccccc21`, the residual activity in assay [1] is 110%; in assay [2], 99%; in assay [3], 111%; in assay [4], 29%; in [5], 93%; in the assay filed under Homo sapiens, 88%. Also, the residual activity in assay [6] was 5%; in the assay filed under Rattus norvegicus, 109%; in [7], 99%; in assay [8], 105%; in assay [9] it was 110%; in [10], 58%.
Consider `CN(C)c1nc2ccc1CCCn1cc(c3ccccc31)C1=C(C(=O)NC1=O)c1cn(c3ccccc13)CC2`, for which the residual activity in [1] was found to be 106%; in assay [2], 98%; in [3], 109%; in [4], 21%; in assay [5], 72%; in the assay listed under Homo sapiens it was 120%. For the same compound, the residual activity was determined as 37% in assay [6]; 92% in the assay filed under Rattus norvegicus; 96% in assay [7]; 86% in assay [8]; 105% in [9]; 96% in [10].
